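96-well plates; 48 h exposure; 5 concentrations. Endpoints by linear interpolation between flanking doses. Not reached: highest tested concentration assigned. GI50 is the concentration that inhibits growth by half.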 Activity calls are given as the source filed them. Cut-off read from the data, not from the text of the source: active = GI50 up to about 1.1 µM and inactive = higher.
Key:
Assay in all cases: DTP human tumour cell line panel, 48 h
NCI-H226 = system: NCI-H226
M14 = system: M14
SF-539 = system: SF-539
DU-145 = system: DU-145
CCRF-CEM = system: CCRF-CEM
HL-60 = system: HL-60
RPMI-8226 = system: RPMI-8226
MDA-N = system: MDA-N
A498 = system: A498
SNB-75 = system: SNB-75
SF-268 = system: SF-268
CAKI-1 = system: CAKI-1
KM12 = system: KM12
MCF7 = system: MCF7
NCI/ADR-RES = system: NCI/ADR-RES
U-251 = system: U-251
NCI-H460 = system: NCI-H460
A549 = system: A549
MDA-MB-231 = system: MDA-MB-231
RXF 393 = system: RXF 393

SMILES | GI50 (NCI-H226) | GI50 (M14) | GI50 (SF-539) | GI50 (DU-145) | GI50 (CCRF-CEM) | GI50 (HL-60) | GI50 (RPMI-8226) | GI50 (MDA-N) | GI50 (A498) | GI50 (SNB-75) | GI50 (SF-268) | GI50 (CAKI-1) | GI50 (KM12) | GI50 (MCF7) | GI50 (NCI/ADR-RES) | GI50 (U-251) | GI50 (NCI-H460) | GI50 (A549) | GI50 (MDA-MB-231) | GI50 (RXF 393)
Cc1ccccc1NC(=O)CC(=O)NNC(Sc1ccccc1)c1cc(/N=N/c2ccc(Br)cc2)ccc1O (configuration not stated) | 2.04 µM (inactive) | 0.723 µM (active) | 1.37 µM (inactive) | 2.21 µM (inactive) | 0.43 µM (active) | 0.277 µM (active) | 1.7 µM (inactive) | 3.14 µM (inactive) | 2.4 µM (inactive) | 3.79 µM (inactive) | 0.733 µM (active) | 2.53 µM (inactive) | 4.79 µM (inactive) | 0.798 µM (active) | 1.71 µM (inactive) | 2.64 µM (inactive) | 0.658 µM (active) | 3.42 µM (inactive) | 1.14 µM (inactive) | 2.13 µM (inactive)
CCOC(=O)C(NC(=O)CC)(Nc1ccc(S(=O)(=O)Nc2ccc(OC)nn2)cc1)C(F)(F)F (configuration not stated) | > 100 µM (inactive) | > 100 µM (inactive) | > 100 µM (inactive) | > 100 µM (inactive) | > 100 µM (inactive) | > 100 µM (inactive) | > 100 µM (inactive) | > 100 µM (inactive) | > 100 µM (inactive) | > 100 µM (inactive) | > 100 µM (inactive) | > 100 µM (inactive) | > 100 µM (inactive) | > 100 µM (inactive) | > 100 µM (inactive) | > 100 µM (inactive) | > 100 µM (inactive) | > 100 µM (inactive) | > 100 µM (inactive) | > 100 µM (inactive)
Nc1nccc2c1ncn2C1C=C(CO)C(O)C1O (configuration not stated) | 49.1 µM (inactive) | 70 µM (inactive) | 11.8 µM (inactive) | > 100 µM (inactive) | 2.76 µM (inactive) | 1.82 µM (inactive) | 6.31 µM (inactive) | 2.99 µM (inactive) | > 100 µM (inactive) | 62.1 µM (inactive) | > 96.4 µM (inactive) | 21.1 µM (inactive) | 1.6 µM (inactive) | 4.29 µM (inactive) | 7.05 µM (inactive) | 51.8 µM (inactive) | 1.41 µM (inactive) | 98.4 µM (inactive) | > 100 µM (inactive) | 87.9 µM (inactive)
CC1CCCCN1CC(=O)c1ccc2c(c1)Sc1ccccc1O2 (configuration not stated) | 12.9 µM (inactive) | 19.5 µM (inactive) | 16.9 µM (inactive) | 26.7 µM (inactive) | 16.5 µM (inactive) | 10.2 µM (inactive) | > 100 µM (inactive) | 15.2 µM (inactive) | 18.8 µM (inactive) | 11 µM (inactive) | 18.7 µM (inactive) | 17.9 µM (inactive) | 16.5 µM (inactive) | 16 µM (inactive) | 16.7 µM (inactive) | 14.1 µM (inactive) | 14.2 µM (inactive) | 14.6 µM (inactive) | 24.7 µM (inactive) | 13.8 µM (inactive)
CCCCCCOc1ccc(NC2=C(Cl)C(=O)c3c(O)ccc(O)c3C2=O)cc1 | 3.88 µM (inactive) | 2.01 µM (inactive) | 2.4 µM (inactive) | 5.9 µM (inactive) | 2.49 µM (inactive) | 1.77 µM (inactive) | 1.4 µM (inactive) | 2.99 µM (inactive) | 4.57 µM (inactive) | 4.06 µM (inactive) | 6.22 µM (inactive) | 5.28 µM (inactive) | 1.88 µM (inactive) | 0.414 µM (active) | 2.55 µM (inactive) | 2.32 µM (inactive) | 1.01 µM (active) | 3.27 µM (inactive) | 1.86 µM (inactive) | 2.32 µM (inactive)
Clc1ccc2oc(CCc3ccccc3)nc2c1 | 32.6 µM (inactive) | 59.8 µM (inactive) | > 100 µM (inactive) | 48.1 µM (inactive) | 29.8 µM (inactive) | 34.7 µM (inactive) | 46.1 µM (inactive) | 50.1 µM (inactive) | 26.3 µM (inactive) | 17.8 µM (inactive) | 87.9 µM (inactive) | 38.2 µM (inactive) | 37.3 µM (inactive) | 38 µM (inactive) | 40.8 µM (inactive) | 37.2 µM (inactive) | 59.2 µM (inactive) | 36.6 µM (inactive) | > 100 µM (inactive) | 24.9 µM (inactive)
O=C1c2c(Br)sc(Br)c2[C@@H](O)[C@H]1O | 17.6 µM (inactive) | 13.1 µM (inactive) | 15.9 µM (inactive) | 16.4 µM (inactive) | 2.32 µM (inactive) | 9.14 µM (inactive) | 21.7 µM (inactive) | 16.3 µM (inactive) | 68.1 µM (inactive) | 15.4 µM (inactive) | 10.8 µM (inactive) | 18.4 µM (inactive) | 21.2 µM (inactive) | 17.1 µM (inactive) | 22.4 µM (inactive) | 7.48 µM (inactive) | 17.2 µM (inactive) | 20.9 µM (inactive) | 16.6 µM (inactive) | 16.2 µM (inactive)
CCN(CC)C(=S)SC1C(=O)NC(=O)NC1=O | > 100 µM (inactive) |  | > 100 µM (inactive) | > 100 µM (inactive) | > 100 µM (inactive) | > 100 µM (inactive) | > 100 µM (inactive) | > 100 µM (inactive) | 0.0106 µM (active) | > 100 µM (inactive) | > 100 µM (inactive) | > 100 µM (inactive) | > 100 µM (inactive) | > 100 µM (inactive) | 0.6 µM (active) | > 100 µM (inactive) | 0.017 µM (active) | > 100 µM (inactive) | > 100 µM (inactive) | > 100 µM (inactive)
CCCCc1c2c(nc3c1CCCC3O)CCCC2 (configuration not stated) | > 100 µM (inactive) | > 100 µM (inactive) | > 100 µM (inactive) | > 100 µM (inactive) | 72.6 µM (inactive) | > 100 µM (inactive) | > 100 µM (inactive) | > 100 µM (inactive) | > 100 µM (inactive) | > 100 µM (inactive) | > 100 µM (inactive) | > 100 µM (inactive) | > 100 µM (inactive) | > 100 µM (inactive) | > 100 µM (inactive) | > 100 µM (inactive) | > 100 µM (inactive) | > 100 µM (inactive) | > 100 µM (inactive) | > 100 µM (inactive)
Cc1ccc(S(=O)(=O)N2CCN(CCN(C)CCN3CCN(S(=O)(=O)c4ccc(C)cc4)CC3)CC2)cc1 | 25.7 µM (inactive) | 17.2 µM (inactive) | 16.4 µM (inactive) | 16 µM (inactive) | 18.7 µM (inactive) | 16.1 µM (inactive) | 16.6 µM (inactive) | 18.9 µM (inactive) | 16.4 µM (inactive) |  | 17.2 µM (inactive) | 19.4 µM (inactive) | 15.1 µM (inactive) | 17.7 µM (inactive) | 20 µM (inactive) | 17.3 µM (inactive) | 17.5 µM (inactive) | 23.3 µM (inactive) | 20.6 µM (inactive) | 14.3 µM (inactive)
CC(C)(C)c1cc2c(O)c(c1)Cc1cc(C(C)(C)C)cc(c1O)Cc1cc(C(C)(C)C)cc(c1O)Cc1cc(C(C)(C)C)cc(c1O)Cc1cc(C(C)(C)C)cc(c1O)Cc1cc(C(C)(C)C)cc(c1O)Cc1cc(C(C)(C)C)cc(c1O)Cc1cc(C(C)(C)C)cc(c1O)C2 | > 50 µM (inactive) | > 50 µM (inactive) | > 50 µM (inactive) | > 50 µM (inactive) | > 50 µM (inactive) | > 50 µM (inactive) | > 50 µM (inactive) | > 50 µM (inactive) | > 50 µM (inactive) | > 50 µM (inactive) | > 50 µM (inactive) | > 50 µM (inactive) | > 50 µM (inactive) | > 50 µM (inactive) | > 50 µM (inactive) | > 50 µM (inactive) | > 50 µM (inactive) | > 50 µM (inactive) | > 50 µM (inactive) | > 50 µM (inactive)
CN1CCN(CCCNN)CC1 | > 100 µM (inactive) | > 100 µM (inactive) | > 100 µM (inactive) | > 100 µM (inactive) |  | 7.33 µM (inactive) | 86.7 µM (inactive) | > 100 µM (inactive) | > 100 µM (inactive) | > 100 µM (inactive) | > 100 µM (inactive) | > 100 µM (inactive) | > 100 µM (inactive) | > 100 µM (inactive) | > 100 µM (inactive) | > 100 µM (inactive) | > 100 µM (inactive) | > 100 µM (inactive) | > 100 µM (inactive) | > 100 µM (inactive)
CC(=O)[C@H]1[C@@H](OCc2ccccc2)O[N+]([O-])=C(C)[C@@H]1c1ccccc1 | 52.1 µM (inactive) | 36.1 µM (inactive) | 18.6 µM (inactive) | 43.8 µM (inactive) | 14.9 µM (inactive) | 19 µM (inactive) | 14.7 µM (inactive) | 41.7 µM (inactive) | > 100 µM (inactive) | > 100 µM (inactive) | 37.2 µM (inactive) | 23.6 µM (inactive) | 37.4 µM (inactive) | 30.8 µM (inactive) | 39.1 µM (inactive) | 44.5 µM (inactive) | 53.8 µM (inactive) | 53.2 µM (inactive) | 34.6 µM (inactive) | 17.3 µM (inactive)
COc1cc(/C=C(\C#N)C(N)=C(C#N)C#N)cc(O)c1O | > 63.5 µM (inactive) | > 100 µM (inactive) | > 100 µM (inactive) | > 100 µM (inactive) | 22.7 µM (inactive) | 26.9 µM (inactive) | > 100 µM (inactive) | 68.2 µM (inactive) | > 100 µM (inactive) | > 88.5 µM (inactive) | > 87.9 µM (inactive) | > 100 µM (inactive) | > 84.3 µM (inactive) | 95.3 µM (inactive) | > 100 µM (inactive) | > 88.7 µM (inactive) | > 89.1 µM (inactive) | > 100 µM (inactive) | > 100 µM (inactive) | > 100 µM (inactive)
